This note sets out measurements from patent US20230022724A1, “NOVEL IMIDAZOPYRAZINE DERIVATIVES” (Hoffmann-La Roche Inc., priority 2018, published 2023).

Structures can show the parent of a compound that is named as a salt.

One assay relates to Acinetobacter baumannii ATCC17978. The experiment in a line: Antimicrobial susceptibility testing: 90% growth inhibitory concentration (IC90) determination. The assay is classed as cell-based. The settings on record: 90% growth inhibitory concentration, Acinetobacter baumannii ATCC17978, Iso-Sensitest broth, OD 600 nm over 16 h; read-out: ATCC17978 IC90. On the procedure:
The in vitro antimicrobial activity of the compounds was determined according to the following procedure:
The assay used a 10-points Iso-Sensitest broth medium to measure quantitatively the in vitro activity of the compounds against Acinetobacter baumannii ATCC17978 and Acinetobacter baumannii ATCC17961.
Stock compounds in DMSO were serially twofold diluted (e.g. range from 50 to 0.097 μM final concentration) in 384 wells microtiter plates and inoculated with 49 μl the bacterial suspension in Iso-Sensitest medium to have a final cell concentration of ˜5×10^(5) CFU/ml in a final volume/well of 50 ul/well. Microtiter plates were incubated at 35±2° C.
Bacterial cell growth was determined with the measurement of optical density at λ=600 nm each 20 minutes over a time course of 16 h. Growth inhibition was calculated during the logarithmic growth of the bacterial cells with determination of the concentration inhibiting 50% (IC50) and 90% (IC90) of the growth.
Table 1 provides the 90% growth inhibitory concentrations (IC90) in micromoles per liter of the compounds of present invention obtained against the strain Acinetobacter baumannii ATCC17978 and Acinetobacter baumannii ATCC17961.
Regarding “(R)-1-(2-chloro-4-((3-(3-fluoro-4-methoxyphenyl)imidazo[1,2-a]pyrazin-8-yl)amino)benzoyl)-N-(pyrrolidin-3-yl)piperidin-4-carboxamide hydrochlroide [Example 17]”, the IC90 was 220 nM.

The same assay, now with this note: Acinetobacter baumannii, ATCC17978, 16 h, 90% growth inhibitory concentration, Acinetobacter baumannii ATCC17978, Iso-Sensitest broth, OD 600 nm over 16 h; read-out: ATCC17978 IC90.
For `NCC1CCN(C(=O)c2ccc(Nc3nccn4c(-c5ccc(OC(F)F)cc5)cnc34)cc2Br)CC1` [Example 5, (4-(aminomethyl)piperidin-1-yl)(2-bromo-4-((3-(4-(difluoromethoxy)phenyl)imidazo[1,2-a]pyrazin-8-yl)amino)phenyl)methanone hydrochloride], the IC90 turned out to be 140 nM.
Take `COc1ccc(-c2cnc3c(Nc4ccc(C(=O)N5CCC(CN)CC5)c(Br)c4)nccn23)cc1F` [Example 80, [4-(aminomethyl)piperidin-1-yl]-[2-bromo-4-[[3-(3-fluoro-4-methoxyphenyl)imidazo[1,2-a]pyrazin-8-yl]amino]phenyl]methanone]: the IC90 was 87 nM.
As for `COc1ccc(-c2cnc3c(Nc4ccc(C(=O)N5CCNC(C(=O)O)C5)c(Cl)c4)nccn23)c(F)c1F` (stereo not shown) [Example 1, 4-(2-chloro-4-((3-(2,3-difluoro-4-methoxyphenyl)imidazo[1,2-a]pyrazin-8-yl)amino)benzoyl)piperazine-2-carboxylic Acid], the IC90 is 1900 nM.
With `CN(C)CCN1CCN(C(=O)c2ccc(Nc3nccn4c(-c5ccc(OCC#N)c(F)c5F)cnc34)cc2Br)CC1` [Example 78, 2-[4-[8-[3-bromo-4-[4-[2-(dimethylamino)ethyl]piperazine-1-carbonyl]anilino]imidazo[1,2-a]pyrazin-3-yl]-2,3-difluorophenoxy]acetonitrile; formic acid], the IC90 came to 280 nM.
Regarding `N#CCOc1ccc(-c2cnc3c(Nc4ccc(C(=O)N5CCOCC5)c(Cl)c4)nccn23)c(F)c1F` [Example 79, 2-[4-[8-[3-chloro-4-(morpholine-4-carbonyl)anilino]imidazo[1,2-a]pyrazin-3-yl]-2,3-difluorophenoxy]acetonitrile], the concentration for an effect of 90% (IC90) came out at 160 nM.
With `CN(C)CCN1CCN(C(=O)c2ccc(Nc3nccn4c(-c5ccc(OCC#N)c(F)c5F)cnc34)cc2Cl)CC1` [Example 10, 2-(4-(8-((3-chloro-4-(4-(2-(dimethylamino)ethyl)piperazine-1-carbonyl)phenyl)amino)imidazo[1,2-a]pyrazin-3-yl)-2,3-difluorophenoxy)acetonitrile], the IC90 was determined as 64 nM.

The same assay, now with this note: Acinetobacter baumannii, ATCC17978, 16 h, read-out: ATCC17978 IC90.
Consider `N#CCOc1ccc(-c2cnc3c(Nc4ccc(C(=O)N5CCC(C(=O)N6CCN[C@@H](C(=O)O)C6)CC5)c(Cl)c4)nccn23)c(F)c1F` [Example 46, (R)-4-(1-(2-chloro-4-((3-(4-(cyanomethoxy)-2,3-difluorophenyl)imidazo[1,2-a]pyrazin-8-yl)amino)benzoyl)piperidine-4-carbonyl)piperazine-2-carboxylic Acid; Formic Acid], for which the IC90 stood at 890 nM.
As to `N#CCOc1ccc(-c2cnc3c(Nc4ccc(C(=O)N5CCC(C(=O)N6CCN[C@@H](CO)C6)CC5)c(Cl)c4)nccn23)c(F)c1F` [Example 85, 2-[4-[8-[3-chloro-4-[4-[(3R)-3-(hydroxymethyl)piperazine-1-carbonyl]piperidine-1-carbonyl]anilino]imidazo[1,2-a]pyrazin-3-yl]-2,3-difluorophenoxy]acetonitrile; formic acid], the IC90 was 46 nM.
`N#CCOc1ccc(-c2cnc3c(Nc4ccc(C(=O)N5CCC(C(=O)N6CCN[C@H](CO)C6)CC5)c(Cl)c4)nccn23)c(F)c1F` [Example 87, 2-[4-[8-[3-chloro-4-[4-[(3S)-3-(hydroxymethyl)piperazine-1-carbonyl]piperidine-1-carbonyl]anilino]imidazo[1,2-a]pyrazin-3-yl]-2,3-difluorophenoxy]acetonitrile; formic acid]: the IC90 came to 52 nM.
